The values that follow come from patent US20240207282A1, “METHOD OF INCREASING CHAPERONE MEDIATED AUTOPHAGY BY STABILIZING THE INTERACTION OF RETINOIC ACID RECEPTOR-ALPHA AND AN INHIBITOR” (ALBERT EINSTEIN COLLEGE OF MEDICINE, priority 2021, published 2024).

A short description of data set [1]: In vitro solubility by nephelometry. The format is physicochemical. Here is the method: In vitro solubility in the following conditions A) HBSS/HEPES 10 mM/BSA 0.1% pH 6 B) HBSS/HEPES 10 mM/BSA 0.1% pH 7.4 C) TRIS/BSA 0.1% PBS (pH 7.4 and at indicated doses were measured by Nephelometry using the NEPHELOstar Galaxy apparatus (BMG Lab Technologies). In vitro stability in human, mouse and rat liver microsomes and permeability using a bidirectional permeability assay with CaCo-2 cells (pH 6.5/7.4) assays were performed with standard methodology and analyzed by LC-MS/MS. at SIMM-SERVIER joint Biopharmacy Laboratory. In silico ADME properties calculated by QikProp (Schrodinger, LLC) analysis and ADME predictions for CA39 (left) and CA77 (right).

Data set [2] relates to NIH3T3. Kind of data set: Intracellular proteolysis of long half-life proteins (3H-leucine). The format is cell-based, mouse. Particulars: 10 μM; duration of increase after addition. As to the method:
Proteolysis was calculated from aliquots of the medium taken at different times and precipitated in trichloroacetic acid, as the amount of acid-precipitable radioactivity transformed to acid-soluble radioactivity at each time.

In data set [3] the target is T1, human RARα LBD / NCoR1 peptide (Homo sapiens, UniProt P10276).
T1 construct: human RARα (residues 176-421); His tag; made in house; host or cells: Escherichia coli BL21(DE3)
T1 sequence (P10276 176-421, other chains not shown): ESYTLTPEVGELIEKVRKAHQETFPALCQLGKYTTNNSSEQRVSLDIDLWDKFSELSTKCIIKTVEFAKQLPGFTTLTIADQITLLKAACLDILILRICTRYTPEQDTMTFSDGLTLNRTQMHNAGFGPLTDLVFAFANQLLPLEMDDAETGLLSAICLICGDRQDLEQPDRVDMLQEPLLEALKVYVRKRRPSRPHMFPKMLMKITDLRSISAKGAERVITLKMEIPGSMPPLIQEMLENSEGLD
Kind of data set: Fluorescence polarization binding assay, RARα LBD with FITC-NCoR1 peptide. Particulars: 10 μM compound. Here is the method:
The histidine-tagged ligand binding domain (LBD) of human RARα (residues 176-421) was expressed in Escherichia colic BL21(DE3). Cells were grown at 37° C. in LB medium supplemented with 50 μg/mL kanamycin until OD600 reached about 0.8. Expression of T7 polymerase was induced by addition of isopropyl-b-d-thiogalactoside (IPTG) to a final concentration of 0.8 mM and cells were incubated at 20° C. overnight. Cell cultures were harvested by centrifugation at 8,000×g for 15 mins. The cell pellet from 1 liter of RARα LBD was resuspended in 50 mL lysis buffer (20 mM Tris-HCl pH 8, 500 mM NaCl, 25 mM imidazole) supplemented with ONE COMPLETE, an EDTA-free protease inhibitor tablet (Roche Applied Science). The suspension was lysed using a high-pressure homogenizer and centrifuged at 35,000×g at 4° C. for 45 minutes. […]
The fluorescein-tagged peptide of NCoR1, FITC-Ahx-RLITLADHICQIITQDFAR (FITC-NCoR1) was provided by Genscript at purity>95%. Fluorescence polarization assays (FPA) were performed using established procedures. […] Fluorescence polarization was measured at 30 min on a F200 PRO microplate reader (TECAN) with the excitation wavelength set at 470 nm and emission measured at 530 nm. EC50 values were calculated by nonlinear regression analysis of competitive binding curves using Graphpad Prism software.

Data set [4] concerns human cells. The data set is described as follows: CMA activity, KFERQ-PS-Dendra reporter in human cells. In kind it is cell-based. Here is the method: Cells: NIH3T3 mouse fibroblasts and the N2a neuroblastoma cell line were obtained from the American Type Culture Collection and were validated by genomic PCR. Primary human fibroblasts (GM01651) were from Coriell Repository. All the cells lines were tested for mycoplasma contamination using DNA staining protocol with Hoechst 33258 dye. Knock-down of NCoR1 was done using lentiviral mediated shRNA (SHCLNG-NM_011308) from the Sigma Mission library following standard procedures. Efficiency of knock-down was tested by immunoblot. Cell viability was measured using the CellTiter-Blue kit (Promega) 24 h after the addition of the different stressors according to manufacturer's instructions.
CMA activity: Cells were transduced with lentivirus carrying the KFERQ-PS-Dendra reporter as before. Cells were photoactivated by exposure to a 3.5 mA (current constant) light emitting diode (LED: Norlux, 405 nm) for 3 min and then plated in glass-bottom 96 well plates. At the desired times, cells were fixed with 4% PFA and imaged using high-content microscopy (Operetta system, Perkin Elmer). Images were quantified using the manufacturer's software in a minimum of 1,200 cells in 9 independent fields per well. […] To avoid con-funding effects for drug-induced changes in cell volume or adherence to the plate that could bring a fraction of the cells per field outside of focus, we set a threshold to count only cells that have at least 1/10 of the average number of […] detected in the untreated wells for each cell type (3-4 puncta/cell in the case of NIH3T3 and N2a cells and 5 puncta/cell in primary human fibroblasts). […] Slices were mounted in DAPI-Fluoromount-G to highlight the cell nucleus and allow quantification of puncta per cell. Images were acquired in x-y-z planes with an Axiovert 200 fluorescence microscope (Carl Zeiss Ltd) with a ×63 objective and 1.4 numerical aperture, mounted with an ApoTome.2 slider or with a Confocal microscope (TCS SP5; Leica) using an HCX Plan Apo CS×63.0 1.40 NA oil objective and the Leica Application Suite X (LAS X).

As for `Clc1ccc2c(c1)OCC(c1ccc(-c3ccccc3)cc1)=N2` [CA39], the solubility result in data set [1] is given as “reasonable solubility”. The “intracellular rates of degradation of long-lived proteins” value in data set [2] is on record as “remained upregulated 24 h after adding”. Besides, the “NCoR1 peptide binding to RARα” value in data set [3] was “enhanced NCoR1 peptide binding to RARα”. The CMA activation entry in data set [4] is listed as “efficiently activate CMA”.
The corresponding values for `CC(=O)Nc1ccc(C2=Nc3ccc(Cl)cc3OC2)cc1` [CA77] are “reasonable solubility”, “remained upregulated 24 h after adding”, “enhanced NCoR1 peptide binding to RARα” and “efficiently activate CMA”.
